{"source": "patent US10012655B2", "about": "“Method for quantitating total HMGB1 protein in biological samples” (INSTITUT PASTEUR, priority 2008, dated 2018)", "molecules": {"B1": {"name": "rhs-TRAIL: recombinant human soluble TRAIL (protein, UniProt P50591 39-281, looked up)", "extracellular domain": "TNELKQMQDKYSKSGIACFLKEDDSYWDPNDEESMNSPCWQVKWQLRQLVRKMILRTSEETISTVQEKQQNISPLVRERGPQRVAAHITGTRGRSNTLSSPNSKNEKALGRKINSWESSRSGHSFLSNLHLRNGELVIHEKGFYYIYSQTYFRFQEEIKENTKNDKQMVQYIYKYTSYPDPILLMKSARNSCWSKDAEYGLYSIYQGGIFELKENDRIFVSVTNEHLIDMDHEASFFGAFLVG", "modifications": "extracellular domain"}}, "key": {"iDCs [1]": {"tested_on": "iDCs", "assay": "aNK-induced apoptosis of iDCs at NK:DC ratio 5:1 (7-AAD assay)", "type": "cell-based, human", "quoted_text": "(a) CD56^+ NK cells were purified from the blood of healthy donors. NK cells were maintained in culture with suboptimal concentrations of interleukin-2 (IL-2) (100 ng/ml) (rNK cells) or activated (aNK cells) by the addition PHA (10 μg/ml) and IL-2 (10 μg/ml) to cultures. […] Data represent the mean±sd of three independent experiments. […] In some cases, iDCs were cocultured with aNK cells at the NK:DC ratio of 5:1. […] Cell death was then quantified with the 7-AAD assay. […] (g) iDCs were cultured for 24 h either alone or with aNK cells (NK:DC ratio of 5:1), in the absence or presence of blocking anti-DR4 antibodies (250 ng/ml). The viability status of DCs was determined by flow cytometry with the 7-AAD assay. […]\nFIGS. 11(a)-(b). […] Cell death was then quantified with the 7-AAD assay. […]\nrNK or aNK were cocultured during 24 h with iDCs or mDCs at a ratio of 1:5 (2×105 NK+10×105 DC/1 ml), unless otherwise indicated. DC survival was determined with the 7-AAD assay, as described previously55. […]\nImmature DCs (iDCs) were prepared from sorted monocytes from healthy donors, cultured for 6 days in the presence of IL-4 and GM-CSF. […] The influence of NK-DC interaction on DC's maturation and apoptosis was analyzed using multiparametric flow cytometry, combining 7-AAD staining with membrane and intracellular staining with mAbs specific for HLA-DR, DC-SIGN, CD83, CD86, DR4, mTRAIL, etc."}, "R5-HIV-1Ba-L": {"tested_on": "R5-HIV-1Ba-L", "assay": "HIV-1 replication in infected iDCs, p24 ELISA in culture supernatant", "type": "cell-based", "conditions": "inhibitor 10 μg/ml, 3 days", "procedure": "FIGS. 6 (a), (b) and (c). Exogenous rh-HMGB1 triggers HIV-1 and HIV-2 replication in iDC. (a) HIV-1-infected iDC were cultured alone or in the presence of aNK cells for 3 days. Rh-HMGB1 (1 μg/ml) was added in some cultures. HIV replication was measured by p24 quantification in culture supernatant (b) HIV1-infected iDC were cultured alone or in the presence of aNK cells for 3 days. Blocking anti-HMGB1 antibodies (10 μg/ml) or glycyrrhizin (10 μg/ml) were added at culture initiation. HIV replication was measured by p24 quantification in culture supernatant. The mean±sd of three independent experiments is shown. Statistical comparisons were made with the non parametric Mann-Whitney test. * p<0.05; (c) HIV-2-infected iDC were cultured alone or in the presence of aNK cells for 3 days. Rh-HMGB1 (1 μg/ml) was added in some cultures. HIV replication was measured by p24 quantification in culture supernatant.\nVirus stock preparation was prepared by amplification of R5-HIV-1Ba-L on MDM from healthy donors. Viral stock was then clarified by centrifugation prior to determination of HIV1 p24 concentration. iDCs were plated in 96-well culture plates at 200,000 cells/well and incubated for 3 hours at 37° C. in a 5% CO2 atmosphere with R5-HIV-1BAL at various concentrations (0.001 to 10 ng p24/ml). Cells were harvested, washed four times with media containing 10% FCS and, when indicated, rNK or aNK cells were added at a NK:DC ratio of 1:5, unless otherwise indicated. NK-DC cocultures lasted 24 h before analysis of the maturation stage of DCs and/or quantification of viral production. In some experiments (FIG. 6), HIV-1 infected iDCs were incubated alone or with aNK cells for 3 days, in the presence of rh-HMGB1 (1 μg/ml) (R&DSystems), and in some cultures in the presence of rabbit antiHMGB1 Abs (10 μg/ml) (Abcam, Cambridge, UK) or Glycyrrhizin (10 μg/ml).\nThe concentration of HIV-1 in the supernatant of infected cell cultures was determined by measuring the amount of p24 protein by ELISA (Ingen, Belgium). DNA from cells was extracted using the GIAamp DNA Blood Mini Kit (Qiagen, Basel, Switzerland) and quantified HIV-1 proviral load by RT-PCR as described previously54. The frequency of HIV-1-infected cells was determined by flow cytometry to detect intracellular p24 molecule. Cells were surface stained with antibodies specific for CD40 (BD Biosciences, San Jose, Calif.) to target DC and intracellular stained with p24-specific antibodies (Coulter). Stained cells were fixed in 1% PFA, immediately acquired on a FACScalibur (Becton Dickinson) and analyzed with FlowJo software. In some experiments infected DCs were imaged, after immunofluorescence, by laser scanning confocal microscopy."}, "iDCs [2]": {"tested_on": "iDCs", "assay": "aNK-dependent maturation of iDCs in 24 h aNK-iDC coculture (CD86/HLA-DR flow cytometry)", "type": "cell-based, human", "conditions": "uninfected iDCs, inhibitor 10 μg/ml added at initiation", "procedure": "FIG. 3 (a)-(e). aNK-dependent maturation of HIV-1-infected iDCs is mediated by HMGB1 and involves RAGE. (a) Left panel: iDCs were cultured for 24 h either alone or with aNK cells, in the presence of blocking anti-HMGB1 antibodies (10 μg/ml) or glycyrrhizin (10 μg/ml). The maturation status of DCs was determined by flow cytometry with CD86 and HLA-DR—specific antibodies. Right panel: same experiment, but performed with HIV-1 infected iDCs. Data represent mean±sd of at least three independent experiments, and statistical comparisons were made with the non parametric Mann-Whitney test. * p<0.05. (b) iDC (10^6 cells/ml) were cultured for 48 h with increasing concentrations (1-10 μg/ml) of rh-HMGB1. Cells were then stained with anti-CD86, -HLA-DR, -CD80, -CD83, DC-LAMP and -CD40 antibodies and analyzed by flow cytometry. (c) Influence of rh-HMGB1 on cytokine and chemokine production (determined by MAP) by DCs. iDCs (10^6 cells/ml) were incubated for 48 h in medium or in presence of rh-HMGB1 (1 or 10 μg/ml). As a positive control, iDCs were stimulated with LPS (DC0). […] (e) iDC, DC0, uninfected or HIV-1-infected iDC cocultured for 24 h with aNK cells, were incubated with rh-HMGB1 (1 μg/ml) and subsequently stained with anti-RAGE antibodies and analyzed by flow cytometry. […]"}, "HIV-infected DCs": {"tested_on": "HIV-infected DCs", "assay": "TRAIL-induced apoptosis of iDCs and HIV-infected DCs (7-AAD assay)", "type": "cell-based, human", "conditions": "24 h with 1-1000 ng/ml rhs-TRAIL", "procedure": "FIGS. 10(a)-(d). R5-HIV-infected DCs are resistant to killing by aNK cells, although TRAIL secretion persists in the presence of HIV-1 (a) iDCs were either infected with R5-HIV-1BaL (1 ng/ml of p24) for 24 h or uninfected, and after several washes, they were incubated with aNK cells at the ratios of 1:5 and 5:1. iDCs viability was assayed with the 7-AAD test by flow cytometry. Living cells are 7-AAA^−, apoptotic cells 7-AAD^+, and apoptotic debris are 7-AAD^−FSC^low. Dot plots represent one of at least three independent experiments. […] DCs were uninfected (iDCs), infected with R5-HIV-1 at 1 ng/ml of p24 (HIV-DCs) or stimulated with LPS for 48 h. Cells were then stained with CD86 and HLA-DR. Data represent one of at least three independent experiments. (c) TRAIL secretion is not affected by HIV infection of iDCs. 24 h cell-free culture supernatants of iDCs, HIV-infected DCs (10^6/ml), aNK cells-iDCs cocultures (ratio 5:1) and aNK cells-HIV-infected DCs cocultures (ratio 5:1) were tested for soluble TRAIL (sTRAIL) content by ELISA. Data represent the mean±sd of three independent experiments. […] Cell death was then quantified with the 7-AAD assay. The mean±sd of three independent experiments was presented."}}, "data": [{"molecule": "C/C=C/[C@H]1O[C@@](O)([C@@H](C)[C@H](O)[C@H](C)[C@H]2OC(=O)/C(OC)=C/C(C)=C/[C@@H](C)[C@@H](O)[C@@H](CC)[C@@H](O)[C@H](C)C/C(C)=C/C=C/[C@@H]2OC)C[C@@H](O[C@H]2C[C@@H](O)[C@H](OC(N)=O)[C@@H](C)O2)[C@@H]1C", "note": "[Concanamycin A]", "values": [{"measurement": "NK-dependent iDCs apoptosis", "setting": "iDCs [1]; uninfected iDCs, aNK cells, NK:DC ratio 5:1, 24 h", "value": "no effect"}]}, {"molecule": "CC1(C)[C@@H](O[C@H]2O[C@H](C(=O)O)[C@@H](O)[C@H](O)[C@H]2O[C@@H]2O[C@H](C(=O)O)[C@@H](O)[C@H](O)[C@H]2O)CC[C@]2(C)[C@H]3C(=O)C=C4[C@@H]5C[C@@](C)(C(=O)O)CC[C@]5(C)CC[C@@]4(C)[C@]3(C)CC[C@@H]12", "note": "[glycyrrhizin, reference compound]", "values": [{"measurement": "resistance of HIV-1-infected iDCs to aNK-induced apoptosis (inhibition assays)", "setting": "iDCs [1]; HIV-1-infected iDCs, NK:DC ratio 5:1, AZT added at infection, inhibitors at coculture initiation", "value": "found dependent on HMGB1"}, {"measurement": "HIV-1 production (p24 in supernatant)", "setting": "R5-HIV-1Ba-L; infected DC cocultured with aNK cells", "value": "abrogated HIV-1 production"}, {"measurement": "HIV-1 production (p24 in supernatant)", "setting": "R5-HIV-1Ba-L; infected DC cultured alone", "value": "abrogated HIV-1 production"}, {"measurement": "proportions of mature DCs (CD86bright HLA-DRbright)", "setting": "iDCs [2]", "value": "reduced the proportions of mature DCs (identified as CD86brightHLA-DRbright) to the baseline level observed without aNK cells"}]}, {"molecule": "B1", "values": [{"measurement": "cell death of HIV-1-infected DCs", "setting": "HIV-infected DCs", "value": "still susceptible to TRAIL-induced apoptosis"}]}]}
